Values after ≈ are worked out from the molar mass of the structure shown.
Legend:
Coagulation factor VII = biological target: T1, Coagulation factor VII (Homo sapiens, UniProt P08709); assay type: single protein
T1 sequence (P08709 whole entry): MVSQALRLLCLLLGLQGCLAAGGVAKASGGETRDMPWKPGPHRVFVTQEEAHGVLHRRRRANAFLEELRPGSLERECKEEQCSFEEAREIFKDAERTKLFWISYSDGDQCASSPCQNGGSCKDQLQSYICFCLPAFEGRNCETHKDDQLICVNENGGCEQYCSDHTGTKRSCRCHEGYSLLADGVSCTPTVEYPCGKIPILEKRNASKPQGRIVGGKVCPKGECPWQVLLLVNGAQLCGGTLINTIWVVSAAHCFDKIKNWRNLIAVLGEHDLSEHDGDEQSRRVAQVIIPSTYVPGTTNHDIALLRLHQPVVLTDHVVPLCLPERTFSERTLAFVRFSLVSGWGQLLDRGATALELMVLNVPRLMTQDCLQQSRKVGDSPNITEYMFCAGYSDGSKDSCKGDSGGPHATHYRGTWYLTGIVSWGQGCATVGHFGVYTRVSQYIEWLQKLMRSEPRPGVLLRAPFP

Plasminogen = Plasminogen (Homo sapiens, UniProt P00747); assay type: single protein
[1] = Terminal half life in C57BL/6 mouse at 1 mg/kg, iv bolus injection or 10 mg/kg, po by LC-MS/MS analysis; assay type: ADME, organism-based; conditions: in vivo, read-out: beta t1/2 (converted)
[2] = biological target: Voltage-gated inwardly rectifying potassium channel KCNH2 (Homo sapiens, UniProt Q12809)
[3] = Dose normalized AUC in C57BL/6 mouse at 1 mg/kg, iv by LC-MS/MS analysis; assay type: ADME, organism-based; conditions: in vivo
[4] = Volume of distribution at steady state in C57BL/6 mouse at 1 mg/kg, iv bolus injection or 10 mg/kg, po by LC-MS/MS analysis; assay type: ADME, organism-based; conditions: in vivo, read-out: Vdss
Plasma kallikrein = Plasma kallikrein (Homo sapiens, UniProt P03952); assay type: single protein
[5] = Dose normalized Cmax in C57BL/6 mouse at 1 mg/kg, iv bolus injection or 10 mg/kg, po by LC-MS/MS analysis; assay type: ADME, organism-based; conditions: in vivo
[6] = Lipophilicity, log D of compound at pH 6.8; assay type: physicochemical; conditions: buffer
Prothrombin = Prothrombin (Homo sapiens, UniProt P00734); assay type: single protein
[7] = Dose normalized Cmax in C57BL/6 mouse at 1 mg/kg, iv bolus injection or 3 mg/kg, po by LC-MS/MS analysis; assay type: ADME, organism-based; conditions: in vivo
Homo sapiens = organism: Homo sapiens; assay: Selectivity ratio of IC50 for inhibition of human complement FD to IC50 for inhibition of human F11a
[8] = biological target: T2, Urokinase-type plasminogen activator (Homo sapiens, UniProt P00749); assay type: ADME
[9] = Terminal half life in C57BL/6 mouse at 1 mg/kg, iv bolus injection or 3 mg/kg, po by LC-MS/MS analysis; assay type: ADME, organism-based; conditions: in vivo, read-out: beta t1/2 (converted)
[10] = biological target: Tissue-type plasminogen activator (Homo sapiens, UniProt P00750); assay type: single protein
in vitro [11] = conditions: human, Caco-2
Coagulation factor X = Coagulation factor X (Homo sapiens, UniProt P00742); assay type: single protein
[12] = Dose normalized AUC in C57BL/6 mouse at 3 mg/kg, po by LC-MS/MS analysis; assay type: ADME, organism-based; conditions: in vivo
[13] = Oral bioavailability in C57BL/6 mouse at 3 mg/kg by LC-MS/MS analysis; assay type: ADME, organism-based; conditions: in vivo
Coagulation factor XI [14] = biological target: T3, Coagulation factor XI (Homo sapiens, UniProt P03951); assay: Inhibition of […] human plasma F11a catalytic domain expressed in Escherichia coli strain BL21(DE3) using D-Leu-Pro-Arg*Rh110-D-Pro as substrate preincubated for 60 mins followed by substrate addition and measured after 60 mins by fluorescence assay
Complement factor D = Complement factor D (Homo sapiens, UniProt P00746); assay type: single protein
in vitro [15] = conditions: human, Caco-2; remark: listed apart in the source
Coagulation factor IX = Coagulation factor IX (Homo sapiens, UniProt P00740); assay type: single protein
in vitro [16] = conditions: human, Caco-2; remark: listed apart in the source
physchem = conditions: aqueous buffer, pH 6.8
Plasma [17] = assay: Effect on coagulation in human plasma assessed as concentration required to double the prothrombin time by thromboplastin-DS reagent based automated coagulometric method; assay type: ADME, cell-free
Coagulation factor XI [18] = biological target: T3, Coagulation factor XI; assay: Inhibition of human F11a using D-Leu-Pro-Arg*Rh110-D-Pro as substrate preincubated for 60 mins followed by substrate addition and measured after 60 mins by fluorescence assay
[19] = Clearance in C57BL/6 mouse at 1 mg/kg, iv bolus injection or 3 mg/kg, po by LC-MS/MS analysis; assay type: ADME, organism-based; conditions: in vivo
Plasma [20] = assay: Anticoagulant activity in human plasma assessed as concentration required to double the activated partial thromboplastin time incubated for 3 mins followed by calcium chloride addition by aPTT-s reagent based automated coagulometric method; assay type: functional
[21] = Volume of distribution at steady state in C57BL/6 mouse at 1 mg/kg, iv bolus injection or 3 mg/kg, po by LC-MS/MS analysis; assay type: ADME, organism-based; conditions: in vivo, read-out: Vdss
[22] = biological target: T2, Urokinase-type plasminogen activator; assay type: single protein
[23] = human, caco-2; BLD = below limit of detection

Sequence of Coagulation factor IX (P00740 47-191 limits assumed): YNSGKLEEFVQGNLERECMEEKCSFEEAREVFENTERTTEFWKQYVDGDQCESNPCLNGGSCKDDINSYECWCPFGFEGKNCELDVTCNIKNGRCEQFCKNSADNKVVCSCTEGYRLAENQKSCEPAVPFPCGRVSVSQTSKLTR
Sequence of Coagulation factor IX (P00740 227-461 limits assumed): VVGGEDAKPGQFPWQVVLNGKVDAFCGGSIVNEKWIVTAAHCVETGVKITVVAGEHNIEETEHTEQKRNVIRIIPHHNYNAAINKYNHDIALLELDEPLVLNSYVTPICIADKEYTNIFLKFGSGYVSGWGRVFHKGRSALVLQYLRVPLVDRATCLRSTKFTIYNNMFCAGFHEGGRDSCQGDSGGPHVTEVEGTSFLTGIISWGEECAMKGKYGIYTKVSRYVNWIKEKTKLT
T3 sequence (P03951 19-387 limits assumed): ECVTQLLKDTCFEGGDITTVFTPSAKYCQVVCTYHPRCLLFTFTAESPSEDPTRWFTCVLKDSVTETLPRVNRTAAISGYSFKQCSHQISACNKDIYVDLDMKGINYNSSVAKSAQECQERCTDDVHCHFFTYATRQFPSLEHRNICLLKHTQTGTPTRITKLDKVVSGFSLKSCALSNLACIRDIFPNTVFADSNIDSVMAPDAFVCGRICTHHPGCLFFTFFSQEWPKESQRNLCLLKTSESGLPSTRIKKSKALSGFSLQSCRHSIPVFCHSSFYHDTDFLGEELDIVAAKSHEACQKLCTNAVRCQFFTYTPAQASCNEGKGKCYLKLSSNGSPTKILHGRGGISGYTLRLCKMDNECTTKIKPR
T3 sequence (P03951 388-625 limits assumed): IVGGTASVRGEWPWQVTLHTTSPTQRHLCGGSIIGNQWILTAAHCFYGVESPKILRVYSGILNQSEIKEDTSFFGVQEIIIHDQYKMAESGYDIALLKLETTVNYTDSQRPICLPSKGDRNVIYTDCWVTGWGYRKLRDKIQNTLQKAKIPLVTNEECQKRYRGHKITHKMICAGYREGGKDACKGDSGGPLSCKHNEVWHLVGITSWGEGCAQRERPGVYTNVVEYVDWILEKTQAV
Sequence of Complement factor D (P00746 whole entry): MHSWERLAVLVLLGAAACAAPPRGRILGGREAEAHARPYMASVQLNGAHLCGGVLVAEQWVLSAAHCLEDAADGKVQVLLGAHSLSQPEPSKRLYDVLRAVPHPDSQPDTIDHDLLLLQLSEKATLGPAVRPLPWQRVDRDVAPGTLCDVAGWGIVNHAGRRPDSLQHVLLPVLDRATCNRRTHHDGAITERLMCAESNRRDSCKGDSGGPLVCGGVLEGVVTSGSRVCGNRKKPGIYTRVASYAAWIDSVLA
Sequence of Tissue-type plasminogen activator (P00750 whole entry): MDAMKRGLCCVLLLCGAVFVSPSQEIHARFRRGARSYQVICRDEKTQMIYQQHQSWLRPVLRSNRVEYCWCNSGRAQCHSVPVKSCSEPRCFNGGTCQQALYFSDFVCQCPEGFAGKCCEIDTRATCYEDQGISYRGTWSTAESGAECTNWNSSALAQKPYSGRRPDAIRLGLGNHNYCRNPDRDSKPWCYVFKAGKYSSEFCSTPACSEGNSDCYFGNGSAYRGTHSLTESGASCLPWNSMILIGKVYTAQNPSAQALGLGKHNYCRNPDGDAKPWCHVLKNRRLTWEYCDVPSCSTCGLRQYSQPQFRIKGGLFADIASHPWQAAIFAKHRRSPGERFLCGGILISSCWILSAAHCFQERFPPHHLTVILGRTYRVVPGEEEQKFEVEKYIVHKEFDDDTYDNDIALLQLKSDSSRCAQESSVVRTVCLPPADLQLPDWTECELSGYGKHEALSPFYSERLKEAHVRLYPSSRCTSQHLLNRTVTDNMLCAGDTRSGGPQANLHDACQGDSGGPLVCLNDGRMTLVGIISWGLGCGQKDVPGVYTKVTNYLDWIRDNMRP
Sequence of Plasminogen (P00747 97-580 limits assumed): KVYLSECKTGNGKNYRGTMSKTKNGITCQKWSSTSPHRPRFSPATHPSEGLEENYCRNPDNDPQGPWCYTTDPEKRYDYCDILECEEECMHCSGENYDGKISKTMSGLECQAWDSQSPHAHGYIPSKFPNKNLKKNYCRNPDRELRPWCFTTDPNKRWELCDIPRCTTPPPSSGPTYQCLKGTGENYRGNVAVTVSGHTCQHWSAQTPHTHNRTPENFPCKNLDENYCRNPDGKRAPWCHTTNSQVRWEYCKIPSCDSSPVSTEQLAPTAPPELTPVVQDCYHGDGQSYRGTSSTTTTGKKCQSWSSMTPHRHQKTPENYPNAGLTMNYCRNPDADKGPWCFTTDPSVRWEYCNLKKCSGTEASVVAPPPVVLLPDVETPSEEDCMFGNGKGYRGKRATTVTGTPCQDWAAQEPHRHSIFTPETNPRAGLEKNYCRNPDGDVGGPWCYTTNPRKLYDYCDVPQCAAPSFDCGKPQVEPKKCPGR
Sequence of Plasminogen (P00747 581-810 limits assumed): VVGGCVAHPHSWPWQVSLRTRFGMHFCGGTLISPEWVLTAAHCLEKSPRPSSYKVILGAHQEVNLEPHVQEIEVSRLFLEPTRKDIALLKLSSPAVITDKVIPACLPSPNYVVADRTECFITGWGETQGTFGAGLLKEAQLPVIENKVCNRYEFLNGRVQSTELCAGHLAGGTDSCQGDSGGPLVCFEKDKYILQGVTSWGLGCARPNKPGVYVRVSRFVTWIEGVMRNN
Sequence of Coagulation factor X (P00742 41-179 limits assumed): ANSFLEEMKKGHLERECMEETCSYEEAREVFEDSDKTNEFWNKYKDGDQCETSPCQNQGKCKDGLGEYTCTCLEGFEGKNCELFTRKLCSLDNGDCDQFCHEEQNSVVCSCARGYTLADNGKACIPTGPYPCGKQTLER
Sequence of Coagulation factor X (P00742 235-488 limits assumed): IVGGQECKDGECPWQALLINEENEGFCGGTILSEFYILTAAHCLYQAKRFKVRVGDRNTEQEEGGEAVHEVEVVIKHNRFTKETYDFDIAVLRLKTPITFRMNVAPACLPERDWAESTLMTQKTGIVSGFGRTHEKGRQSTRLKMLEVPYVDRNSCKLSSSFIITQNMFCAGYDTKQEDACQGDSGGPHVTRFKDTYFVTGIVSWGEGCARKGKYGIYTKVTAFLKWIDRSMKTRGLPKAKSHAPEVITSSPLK
Sequence of Plasma kallikrein (P03952 20-390 limits assumed): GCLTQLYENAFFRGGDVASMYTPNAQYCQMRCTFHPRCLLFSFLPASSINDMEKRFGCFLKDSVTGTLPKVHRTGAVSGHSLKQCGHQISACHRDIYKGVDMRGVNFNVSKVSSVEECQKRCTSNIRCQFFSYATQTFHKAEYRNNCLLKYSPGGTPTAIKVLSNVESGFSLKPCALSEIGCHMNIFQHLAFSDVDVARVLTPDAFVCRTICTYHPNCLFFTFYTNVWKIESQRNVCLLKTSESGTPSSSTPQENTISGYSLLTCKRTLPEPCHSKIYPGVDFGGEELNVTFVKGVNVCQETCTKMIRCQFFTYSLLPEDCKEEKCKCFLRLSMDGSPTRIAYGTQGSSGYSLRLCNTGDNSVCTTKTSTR
Sequence of Plasma kallikrein (P03952 391-638 limits assumed): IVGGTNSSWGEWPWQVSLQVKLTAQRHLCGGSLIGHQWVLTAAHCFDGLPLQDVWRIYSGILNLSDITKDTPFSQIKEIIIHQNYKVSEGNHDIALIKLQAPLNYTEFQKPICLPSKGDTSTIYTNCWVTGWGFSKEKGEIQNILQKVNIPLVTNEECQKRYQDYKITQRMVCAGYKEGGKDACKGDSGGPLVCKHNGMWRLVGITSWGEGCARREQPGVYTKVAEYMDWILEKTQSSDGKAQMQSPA
Sequence of Voltage-gated inwardly rectifying potassium channel KCNH2 (Q12809 whole entry): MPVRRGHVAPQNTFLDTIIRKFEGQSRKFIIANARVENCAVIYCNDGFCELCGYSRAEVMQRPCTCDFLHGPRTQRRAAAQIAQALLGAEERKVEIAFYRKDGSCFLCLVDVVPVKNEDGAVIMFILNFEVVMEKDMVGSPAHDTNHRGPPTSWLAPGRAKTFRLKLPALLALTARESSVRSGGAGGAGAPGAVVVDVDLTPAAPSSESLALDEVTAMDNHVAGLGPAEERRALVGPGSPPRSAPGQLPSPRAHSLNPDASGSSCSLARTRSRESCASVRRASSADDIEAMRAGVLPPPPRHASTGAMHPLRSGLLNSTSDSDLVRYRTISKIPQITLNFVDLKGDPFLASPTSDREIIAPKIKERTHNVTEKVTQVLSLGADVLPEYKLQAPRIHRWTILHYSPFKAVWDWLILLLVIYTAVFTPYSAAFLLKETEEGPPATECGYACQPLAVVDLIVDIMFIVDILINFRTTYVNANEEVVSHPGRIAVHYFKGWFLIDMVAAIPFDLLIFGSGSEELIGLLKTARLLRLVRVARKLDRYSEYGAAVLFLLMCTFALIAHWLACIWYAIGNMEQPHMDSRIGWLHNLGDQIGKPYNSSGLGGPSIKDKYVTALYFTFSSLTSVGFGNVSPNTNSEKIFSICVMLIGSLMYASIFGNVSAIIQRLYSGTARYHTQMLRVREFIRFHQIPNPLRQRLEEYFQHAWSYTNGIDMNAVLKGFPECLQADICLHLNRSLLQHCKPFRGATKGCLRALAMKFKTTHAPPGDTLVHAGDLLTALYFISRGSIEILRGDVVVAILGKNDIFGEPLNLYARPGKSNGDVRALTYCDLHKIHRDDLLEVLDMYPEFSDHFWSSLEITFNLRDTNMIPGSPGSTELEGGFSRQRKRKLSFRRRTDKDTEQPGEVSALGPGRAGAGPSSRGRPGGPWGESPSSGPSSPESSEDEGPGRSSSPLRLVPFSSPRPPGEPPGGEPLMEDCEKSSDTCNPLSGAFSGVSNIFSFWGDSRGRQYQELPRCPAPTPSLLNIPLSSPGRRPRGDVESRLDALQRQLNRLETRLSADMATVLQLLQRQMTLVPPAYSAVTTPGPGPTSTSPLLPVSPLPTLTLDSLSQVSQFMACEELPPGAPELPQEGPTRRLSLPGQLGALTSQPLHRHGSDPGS

Row | SMILES | IC50 (Coagulation factor VII) | IC50 (Plasminogen) | IC50 (Plasma kallikrein) | IC50 (Prothrombin) | IC50 [10] | IC50 (Coagulation factor X) | IC50 (Coagulation factor XI [14]) | IC50 (Complement factor D) | IC50 (Coagulation factor IX) | IC50 (Coagulation factor XI [18]) | IC50 [22] | also measured
1 | NCc1cccc(-c2cccc(COc3ccccc3CC(=O)O)c2)c1 | 1400 nM | 2200 nM | 3100 nM |  |  |  |  |  |  |  |  | half-life [1]: 1.6 h; IC50 [2]: > 30000 nM; AUC/dose [3]: 3284 nM·h; Vd [4]: 0.7 L/kg; Cmax/dose [5]: 2591 nM; logD [6]: 1.91
2 | COc1cccc(C(=O)O)c1OCCc1cc(-c2ccc3c(c2)[C@H](N)CO3)cc(C(C)C)c1 | 28300 nM | 30800 nM | 9 nM | 9090 nM | 2200 nM | 6210 nM | 240 nM | 17500 nM | 10200 nM | 3 nM | 400 nM | 
3 | O=C(O)Cc1ccccc1OCc1cccc(-c2ccc3c(c2)CNCC3)c1 |  |  |  |  |  |  |  | 800 nM |  | 400 nM |  | 
4 | CC(C)(C(N)=O)c1cc(COc2ccccc2CC(=O)O)cc(-c2ccc3c(c2)[C@H](N)CO3)c1 |  |  | 11 nM |  |  |  | 67 nM | 320 nM |  | 9 nM |  | Ratio IC50 (Homo sapiens): 80; Papp B→A (in vitro [11]): 4 ×10⁻⁶ cm/s; solubility thermodynamic (physchem): 780 µM (≈ 359 µg/mL); Papp [23]: Bld
5 | CC(C)c1cc(-c2ccc3c(c2)[C@H](N)CO3)cc(C(O)Cn2ccc3cccc(C(=O)O)c32)c1 (mixture of isomers) | 16700 nM | 17400 nM | 16 nM | 7210 nM | 3700 nM | 11200 nM | 45 nM | 8920 nM | 13400 nM | < 0.7 nM | 1420 nM | 
6 | CC(C)(C#N)c1cc(COc2ccccc2CC(=O)O)cc(-c2ccc3c(c2)[C@H](N)CO3)c1 |  |  | 2 nM |  |  |  | 50 nM | 40 nM |  | 4 nM |  | Cmax/dose [7]: 137 nM; half-life [9]: 0.3 h; Papp B→A (in vitro [11]): 41 ×10⁻⁶ cm/s; AUC/dose [12]: 171 nM·h; bioavailability [13]: 25%; Papp A→B (in vitro [15]): 1.4 ×10⁻⁶ cm/s; efflux ratio (in vitro [16]): 30; solubility thermodynamic (physchem): 60 µM (≈ 26.6 µg/mL); clearance [19]: 55 mL/min/kg; Vd [21]: 0.7 L/kg
7 | CC(C)c1cc(-c2ccc3c(c2)[C@H](N)CO3)cc([C@@H]2CNc3cccc(CC(=O)O)c3O2)c1 | 2000 nM | 690 nM | 1 nM | 30 nM | 50 nM | 220 nM | 10 nM | 60 nM | 30 nM | < 0.7 nM | 20 nM | 2aPTT (Plasma [20]): 0.4 µM
8 | NC1COc2ccc(C(=O)N3C[C@@H](c4ccccc4)C[C@H]3C(=O)Nc3cccc(Cl)c3)cc21 (mixture of isomers) |  |  | 1200 nM |  |  |  |  |  |  | 970 nM |  | 

The remaining compounds from weak to strong by IC50 (Coagulation factor XI [18]), led by results:

Row | IC50 (Coagulation factor VII) | IC50 (Plasminogen) | IC50 (Plasma kallikrein) | IC50 (Prothrombin) | IC50 [10] | IC50 (Coagulation factor X) | IC50 (Coagulation factor XI [14]) | IC50 (Complement factor D) | IC50 (Coagulation factor IX) | IC50 (Coagulation factor XI [18]) | IC50 [22] | SMILES | also measured
9 |  |  |  |  |  |  |  |  |  | 2520 nM |  | CC(C)c1cc(CCNc2ccccc2C(=O)O)cc(-c2ccc3c(c2)[C@H](N)CO3)c1 | 
10 |  |  | 1300 nM |  |  |  |  | 340 nM |  | 200 nM |  | NC1COc2ccc(-c3cccc(COc4ccccc4CC(=O)O)c3)cc21 (racemic) | 
11 |  |  | 330 nM |  |  |  | 430 nM | 230 nM |  | 100 nM |  | CC(C)(O)c1cc(COc2ccccc2CC(=O)O)cc(-c2ccc3c(c2)CNCC3)c1 | 
12 | 12500 nM | 46200 nM | 160 nM | 7430 nM | 6680 nM | 16300 nM | 8110 nM | 27200 nM | 15500 nM | 40 nM | 1130 nM | COc1cccc(C(=O)O)c1OCC(O)c1cc(-c2ccc3c(c2)[C@H](N)CO3)cc(C(C)C)c1 (mixture of isomers) | 
13 | 45100 nM | > 100000 nM | 41 nM | 9820 nM | 4130 nM | 12500 nM | 6620 nM | > 100000 nM | 11300 nM | 17 nM | 2480 nM | Cc1cccc(C(=O)O)c1OCCc1cc(-c2ccc3c(c2)[C@H](N)CO3)cc(C(C)C)c1 | 
14 | 20500 nM | 34000 nM | 21 nM | 6220 nM | 3670 nM | 11100 nM | 5490 nM | 34200 nM | 9600 nM | 15 nM | 930 nM | CC(C)c1cc(CCOc2c(Cl)cccc2C(=O)O)cc(-c2ccc3c(c2)[C@H](N)CO3)c1 | 
15 | 3270 nM | 590 nM | 25 nM | 50 nM | 90 nM | 240 nM | 1190 nM | 1320 nM | 40 nM | 12 nM | 20 nM | CC(C)c1cc(CCOc2ccccc2C(=O)O)cc(-c2ccc3c(c2)[C@H](N)CO3)c1 | 
16 | 75000 nM | 14000 nM | 4 nM | 860 nM | 190 nM | 4300 nM | 260 nM | 15000 nM | 1600 nM | 6 nM |  | CC1(C)COc2c(COc3ccccc3CC(=O)O)cc(-c3ccc4c(c3)[C@H](N)CCO4)cc21 | Ratio IC50 (Homo sapiens): 2500; IC50 [8]: 950 nM
17 |  |  | 6 nM |  |  |  | 170 nM | 320 nM |  | 4 nM |  | CC(C)(O)c1cc(COc2ccccc2CC(=O)O)cc(-c2ccc3c(c2)[C@H](N)CO3)c1 | Cmax/dose [7]: 99 nM; Ratio IC50 (Homo sapiens): 40; half-life [9]: 1.7 h; Papp B→A (in vitro [11]): 19 ×10⁻⁶ cm/s; AUC/dose [12]: 186 nM·h; bioavailability [13]: 3%; solubility thermodynamic (physchem): > 1000 µM; Papp [23]: Bld; clearance [19]: 19 mL/min/kg; Vd [21]: 0.4 L/kg
18 | 7100 nM | 6300 nM | 7 nM | 130 nM | 100 nM | 840 nM | 85 nM | 50 nM | 210 nM | 3 nM |  | CC1(C)COc2c(COc3ccccc3CC(=O)O)cc(-c3ccc4c(c3)[C@H](N)CO4)cc21 | Cmax/dose [7]: 1126 nM; Ratio IC50 (Homo sapiens): 17; IC50 [8]: 16 nM; half-life [9]: 6.4 h; Papp B→A (in vitro [11]): 12 ×10⁻⁶ cm/s; AUC/dose [12]: 6525 nM·h; bioavailability [13]: 61%; Papp A→B (in vitro [15]): 12 ×10⁻⁶ cm/s; efflux ratio (in vitro [16]): 1; solubility thermodynamic (physchem): < 4 µM; 2PT (Plasma [17]): 19.8 µM; clearance [19]: 4 mL/min/kg; 2aPTT (Plasma [20]): 2.5 µM; Vd [21]: 1 L/kg
19 | 8750 nM | 9580 nM | 2 nM | 6140 nM | 490 nM | 1710 nM | 170 nM | 73600 nM | 7860 nM | 2 nM | 250 nM | CC(C)c1cc(-c2ccc3c(c2)[C@H](N)CO3)cc(C(O)CN2CCc3cccc(C(=O)O)c32)c1 (mixture of isomers) | Ratio IC50 (Homo sapiens): 30000
